In brackets after ≈: the same amount, converted by molar mass. Activity calls are given as the source filed them. No cut-off for these calls is given here.
Experiments:
Pseudomonas aeruginosa [1] = experiment: Inhibition of swimming motility in Pseudomonas aeruginosa PAO1 at 4.27 uM incubated for 16 hrs relative to control; type: functional
Staphylococcus aureus [2] = experiment: Antibacterial activity against Staphylococcus aureus ATCC 25923 assessed as bacterial growth inhibition by CLSI based broth microdilution method; type: functional
Pseudomonas aeruginosa [3] = experiment: Antibiofilm activity against Pseudomonas aeruginosa PAO1 assessed as […] biofilm biomass at 1/4 times MIC measured for 24 hrs by crystal violet staining; type: functional
Pseudomonas aeruginosa [4] = experiment: Antibacterial activity against Pseudomonas aeruginosa 1129 assessed as bacterial growth inhibition by CLSI based broth microdilution method; type: functional
Staphylococcus aureus [5] = experiment: Antibacterial activity against methicillin-resistant Staphylococcus aureus ATCC 515992 assessed as bacterial growth inhibition by CLSI based broth microdilution method; type: functional
Staphylococcus aureus [6] = experiment: Antibacterial activity against methicillin-resistant Staphylococcus aureus ATCC 43300 assessed as bacterial growth inhibition by CLSI based broth microdilution method; type: functional
Pseudomonas aeruginosa [7] = experiment: Antibacterial activity against Pseudomonas aeruginosa 1121 assessed as bacterial growth inhibition by CLSI based broth microdilution method; type: functional
Pseudomonas aeruginosa [8] = experiment: Antibacterial activity against Pseudomonas aeruginosa FB assessed as bacterial growth inhibition by CLSI based broth microdilution method; type: functional
Pseudomonas aeruginosa [9] = experiment: Antibacterial activity against Pseudomonas aeruginosa PAO1 assessed as bacterial growth inhibition by CLSI based broth microdilution method; type: functional
Pseudomonas aeruginosa [10] = experiment: Inhibition of twitching motility in Pseudomonas aeruginosa PAO1 at 4.27 uM incubated for 16 hrs relative to control; type: functional
Pseudomonas aeruginosa [11] = experiment: Antibiofilm activity against Pseudomonas aeruginosa PAO1 measured for 24 hrs by crystal violet staining; type: functional
Staphylococcus aureus [12] = experiment: Antibacterial activity against methicillin-resistant Staphylococcus aureus ATCC 513045 assessed as bacterial growth inhibition by CLSI based broth microdilution method; type: functional
Pseudomonas aeruginosa [13] = experiment: Antibacterial activity against Pseudomonas aeruginosa 1167 assessed as bacterial growth inhibition by CLSI based broth microdilution method; type: functional
Pseudomonas aeruginosa [14] = experiment: Inhibition of swarming motility in Pseudomonas aeruginosa PAO1 at 4.27 uM incubated for 16 hrs relative to control; type: functional
Pseudomonas aeruginosa [15] = experiment: Antibiofilm activity against Pseudomonas aeruginosa PAO1 assessed as […] biofilm biomass at MIC measured for 24 hrs by crystal violet staining; type: functional
Pseudomonas aeruginosa [16] = experiment: Antibiofilm activity against Pseudomonas aeruginosa PAO1 assessed as […] biofilm biomass at 1/2 times MIC measured for 24 hrs by crystal violet staining; type: functional
Pseudomonas aeruginosa [17] = experiment: Antibiofilm activity against Pseudomonas aeruginosa PAO1 assessed as reduction in biofilm formation at 1/4 times MIC measured for 24 hrs in presence of 40 uM of FeCl3 by crystal violet staining; type: functional; design: scale not given: the % may be the effect or the level left
Pseudomonas aeruginosa [18] = experiment: Antibiofilm activity against Pseudomonas aeruginosa assessed as biofilm eradication at 4 times MIC measured after 24 hrs by crystal violet staining based analysis; type: functional
HEK293 [19] = experiment: Cytotoxicity against HEK293 cells assessed as reduction in cell viability at 100 uM incubated for 16 hrs by MTT assay relative to control; type: toxicity, cell-based; settings: human, hek293, 16 h
Pseudomonas aeruginosa [20] = experiment: Antibacterial activity against Pseudomonas aeruginosa PAO1 overexpressing fpvA mutant up to 8 times MIC; type: functional, organism-based
Pseudomonas aeruginosa [21] = experiment: Antibiofilm activity against Pseudomonas aeruginosa PAO1 assessed as reduction in biofilm formation at 1/2 times MIC measured for 24 hrs in presence of 40 uM of FeCl3 by crystal violet staining; type: functional; design: scale not given: the % may be the effect or the level left
[22] = Toxicity in Caenorhabditis elegans infected with Pseudomonas aeruginosa PAO1 assessed as nematode survival at MIC incubated at 12 hrs
Pseudomonas aeruginosa [23] = experiment: Antivirulence activity against Pseudomonas aeruginosa PAO1 assessed as reduction in pyocyanin level in flask incubated for 24 hrs by absorbance based assay relative to control; type: functional, organism-based
Pseudomonas aeruginosa [24] = experiment: Antibiofilm activity against Pseudomonas aeruginosa PAO1 assessed as reduction in biofilm formation at MIC measured for 24 hrs in presence of 40 uM of FeCl3 by crystal violet staining; type: functional; design: scale not given: the % may be the effect or the level left
Pseudomonas aeruginosa [25] = experiment: Antibiofilm activity against Pseudomonas aeruginosa PAO1 assessed as reduction in biofilm formation at MIC measured for 24 hrs in presence of 10 uM of FeCl3 by crystal violet staining; type: functional; design: scale not given: the % may be the effect or the level left
HEK293 [26] = experiment: Cytotoxicity against HEK293 cells assessed as reduction in cell viability at 100 uM incubated for 16 hrs by MTT assay; type: toxicity, cell-based; settings: human, hek293, 16 h
Pseudomonas aeruginosa [27] = experiment: Antivirulence activity against Pseudomonas aeruginosa PAO1 assessed as reduction in rhamnolipid level at 4.27 uM incubated for 24 hrs by absorbance based assay relative to control; type: functional; design: scale not given: the % may be the effect or the level left
Pseudomonas aeruginosa [28] = experiment: Selectivity ratio of MIC for antibacterial activity against Pseudomonas aeruginosa PAO1 overexpressing fpvA mutant up to 8 times MIC to MIC for antibacterial activity against Pseudomonas aeruginosa PAO1 up to 8 times MIC; type: functional
Pseudomonas aeruginosa [29] = experiment: Antibiofilm activity against Pseudomonas aeruginosa assessed as reduction in biofilm eradication at 1/4 times MIC measured after 24 hrs by crystal violet staining based analysis; type: functional, organism-based
A549 = experiment: Cytotoxicity against human A549 cells assessed as reduction in cell viability up to 100 uM incubated for 16 hrs by MTT assay; type: toxicity, cell-based; settings: a549, 16 h
Pseudomonas aeruginosa [30] = experiment: Antibacterial activity against wild type Pseudomonas aeruginosa PAO1 […] delta pvdS up to 8 times MIC; type: functional, organism-based
[31] = Toxicity in Caenorhabditis elegans infected with Pseudomonas aeruginosa PAO1 assessed as nematode survival at MIC incubated at 24 hrs relative to control
Pseudomonas aeruginosa [32] = experiment: Inhibition of twitching motility in Pseudomonas aeruginosa PAO1 incubated for 16 hrs; type: functional, organism-based; settings: dose 4.27 µM
Pseudomonas aeruginosa [33] = experiment: Antibiofilm activity against Pseudomonas aeruginosa PAO1 assessed as reduction in biofilm formation at 1/4 times MIC measured for 24 hrs in presence of 10 uM of FeCl3 by crystal violet staining; type: functional; design: scale not given: the % may be the effect or the level left
Pseudomonas aeruginosa [34] = experiment: Potency index, ratio of ciprofloxacin MIC to test compound MIC for antibiofilm activity against Pseudomonas aeruginosa PAO1 assessed as […] biofilm biomass at 1/2 times MIC measured for 24 hrs by crystal violet staining; type: functional
Pseudomonas aeruginosa [35] = experiment: Antibacterial activity against wild type Pseudomonas aeruginosa PAO1 up to 8 times MIC; type: functional, organism-based
Pseudomonas aeruginosa [36] = experiment: Antivirulence activity against Pseudomonas aeruginosa PAO1 assessed as reduction in pyocyanin level incubated for 24 hrs by absorbance based assay; type: functional, organism-based
Pseudomonas aeruginosa [37] = experiment: Antivirulence activity against Pseudomonas aeruginosa PAO1 assessed as reduction in pyocyanin level at 4.27 uM incubated for 24 hrs by absorbance based assay relative to control; type: functional; design: scale not given: the % may be the effect or the level left
Pseudomonas aeruginosa [38] = experiment: Antibiofilm activity against Pseudomonas aeruginosa PAO1 assessed as reduction in biofilm formation at 1/2 times MIC measured for 24 hrs in presence of 10 uM of FeCl3 by crystal violet staining; type: functional; design: scale not given: the % may be the effect or the level left
[39] = Toxicity in Caenorhabditis elegans infected with Pseudomonas aeruginosa PAO1 assessed as nematode survival at MIC incubated at 48 hrs relative to control
Pseudomonas aeruginosa [40] = experiment: Potency index, ratio of ciprofloxacin MIC to test compound MIC for antibacterial activity against Pseudomonas aeruginosa PAO1 assessed as bacterial growth inhibition by CLSI based broth microdilution method; type: functional
Pseudomonas aeruginosa [41] = experiment: Antivirulence activity against Pseudomonas aeruginosa PAO1 assessed as reduction in rhamnolipid level incubated for 24 hrs by absorbance based assay; type: functional, organism-based
Pseudomonas aeruginosa [42] = experiment: Potency index, ratio of ciprofloxacin MIC to test compound MIC for antibiofilm activity against Pseudomonas aeruginosa PAO1 measured for 24 hrs by crystal violet staining; type: functional

Structure (SMILES): COC(=O)c1cn(C2CC2)c2cc(N3CCNCC3)c(F)cc2c1=O
- inhibition (Pseudomonas aeruginosa [1]): inactive
- MIC (Staphylococcus aureus [2]): > 200 µM
- Activity (Pseudomonas aeruginosa [3]): 122.4%
- MIC (Pseudomonas aeruginosa [4]): > 200 µM
- MIC (Staphylococcus aureus [5]): > 200 µM
- MIC (Staphylococcus aureus [6]): > 200 µM
- MIC (Pseudomonas aeruginosa [7]): > 200 µM
- MIC (Pseudomonas aeruginosa [8]): > 200 µM
- MIC (Pseudomonas aeruginosa [9]): 185 µM (≈ 64 µg/mL)
- inhibition (Pseudomonas aeruginosa [10]): inactive
- MIC (Pseudomonas aeruginosa [11]): 185 µM (≈ 64 µg/mL)
- MIC (Staphylococcus aureus [12]): > 200 µM
- MIC (Pseudomonas aeruginosa [13]): 185 µM (≈ 64 µg/mL)
- inhibition (Pseudomonas aeruginosa [14]): inactive
- Activity (Pseudomonas aeruginosa [15]): 109.7%
- Activity (Pseudomonas aeruginosa [16]): 145.2%

Structure (SMILES): O=C(O)c1cn(C2CC2)c2cc(N3CCNCC3)c(F)cc2c1=O [CIPROFLOXACIN]
- Activity (Pseudomonas aeruginosa [17]): 89.5%
- Activity (Pseudomonas aeruginosa [18]): 42.6%
- Activity (HEK293 [19]): 40%
- Activity (Pseudomonas aeruginosa [20]): Active

Structure (SMILES): Cn1cc(O)c(=O)cc1COC(=O)c1cn(C2CC2)c2cc(N3CCNCC3)c(F)cc2c1=O
- Activity (Pseudomonas aeruginosa [21]): 204.8%
- Activity [22]: Non-toxic
- Activity (Pseudomonas aeruginosa [23]): Active
- inhibition at 4.27 µM (Pseudomonas aeruginosa [1]): 64.9%
- Activity (Pseudomonas aeruginosa [24]): 179.6%
- MIC (Staphylococcus aureus [2]): 4.27 µM (≈ 2 µg/mL)
- Activity (Pseudomonas aeruginosa [3]): 42.4%
- MIC (Pseudomonas aeruginosa [4]): 4.27 µM (≈ 2 µg/mL)
- Activity (Pseudomonas aeruginosa [25]): 52.8%
- MIC (Staphylococcus aureus [5]): > 200 µM
- Activity (HEK293 [26]): Non-toxic
- Activity (Pseudomonas aeruginosa [27]): ~20%
- Ratio (Pseudomonas aeruginosa [28]): 2
- MIC (Staphylococcus aureus [6]): 2.13 µM (≈ 0.998 µg/mL)
- MIC (Pseudomonas aeruginosa [7]): 2.13 µM (≈ 0.998 µg/mL)
- Activity (Pseudomonas aeruginosa [29]): Active
- Activity (A549): Non-toxic
- Activity (Pseudomonas aeruginosa [30]): inactive
- Activity (Pseudomonas aeruginosa [17]): 197.5%
- MIC (Pseudomonas aeruginosa [8]): 2.13 µM (≈ 0.998 µg/mL)
- Activity [31]: Toxic
- MIC (Pseudomonas aeruginosa [9]): 1.07 µM (≈ 0.501 µg/mL)
- inhibition at 4.27 µM (Pseudomonas aeruginosa [10]): 44.6%
- inhibition (Pseudomonas aeruginosa [32]): Dose-dependent-effect
- Activity (Pseudomonas aeruginosa [33]): 42.4%
- MIC (Pseudomonas aeruginosa [11]): 8.54 µM (≈ 4 µg/mL)
- Ratio (Pseudomonas aeruginosa [34]): 3
- MIC (Staphylococcus aureus [12]): 4.27 µM (≈ 2 µg/mL)
- Activity (Pseudomonas aeruginosa [35]): inactive
- MIC (Pseudomonas aeruginosa [13]): 2.13 µM (≈ 0.998 µg/mL)
- Activity (Pseudomonas aeruginosa [18]): 75.7%
- Activity (Pseudomonas aeruginosa [36]): Active
- inhibition at 4.27 µM (Pseudomonas aeruginosa [14]): 53.7%
- Activity (Pseudomonas aeruginosa [37]): ~20%
- Activity (Pseudomonas aeruginosa [15]): 52.8%
- Activity (Pseudomonas aeruginosa [38]): 38.3%
- survival at 48 h [39]: 50%
- Activity (Pseudomonas aeruginosa [16]): 38.3%
- Ratio (Pseudomonas aeruginosa [40]): 3
- Activity (Pseudomonas aeruginosa [41]): Active
- Ratio (Pseudomonas aeruginosa [42]): 8

Structure (SMILES): Cn1cc(O)c(=O)cc1CNC(=O)c1cn(C2CC2)c2cc(N3CCNCC3)c(F)cc2c1=O
- MIC (Staphylococcus aureus [2]): 16.6 µM (≈ 7.77 µg/mL)
- Activity (Pseudomonas aeruginosa [3]): 88.5%
- MIC (Pseudomonas aeruginosa [4]): 16.6 µM (≈ 7.77 µg/mL)
- MIC (Staphylococcus aureus [5]): > 200 µM
- MIC (Staphylococcus aureus [6]): 16.6 µM (≈ 7.77 µg/mL)
- MIC (Pseudomonas aeruginosa [7]): 16.6 µM (≈ 7.77 µg/mL)
- MIC (Pseudomonas aeruginosa [8]): 8.31 µM (≈ 3.88 µg/mL)
- MIC (Pseudomonas aeruginosa [9]): 8.31 µM (≈ 3.88 µg/mL)
- MIC (Pseudomonas aeruginosa [11]): 68.5 µM (≈ 32 µg/mL)
- MIC (Staphylococcus aureus [12]): 33.2 µM (≈ 15.5 µg/mL)
- MIC (Pseudomonas aeruginosa [13]): 8.31 µM (≈ 3.88 µg/mL)
- Activity (Pseudomonas aeruginosa [15]): 71.6%
- Activity (Pseudomonas aeruginosa [16]): 82.4%
- Ratio (Pseudomonas aeruginosa [40]): 3

Structure (SMILES): Cc1cc(=O)c(O)c(CNC(=O)c2cn(C3CC3)c3cc(N4CCNCC4)c(F)cc3c2=O)n1C
- MIC (Staphylococcus aureus [2]): 34.2 µM (≈ 16.5 µg/mL)
- Activity (Pseudomonas aeruginosa [3]): 93.6%
- MIC (Pseudomonas aeruginosa [4]): 34.2 µM (≈ 16.5 µg/mL)
- MIC (Staphylococcus aureus [5]): > 200 µM
- MIC (Staphylococcus aureus [6]): 34.2 µM (≈ 16.5 µg/mL)
- MIC (Pseudomonas aeruginosa [7]): 68.5 µM (≈ 33 µg/mL)
- MIC (Pseudomonas aeruginosa [8]): 68.5 µM (≈ 33 µg/mL)
- MIC (Pseudomonas aeruginosa [9]): 17.1 µM (≈ 8.24 µg/mL)
- MIC (Pseudomonas aeruginosa [11]): 66.5 µM (≈ 32 µg/mL)
- MIC (Staphylococcus aureus [12]): 68.5 µM (≈ 33 µg/mL)
- MIC (Pseudomonas aeruginosa [13]): 17.1 µM (≈ 8.24 µg/mL)
- Activity (Pseudomonas aeruginosa [15]): 75.3%
- Activity (Pseudomonas aeruginosa [16]): 78.1%

Source: ChEMBL document CHEMBL6134809 (Eur J Med Chem, 2025)
